In US8114629B2, “Site specific incorporation of keto amino acids into proteins” (The Scripps Research Institute, priority 2002, dated 2012):
Values after ≈ are worked out from the molar mass of the structure shown. Read-outs that look alike come from different tables or passages of the source.

Columns and labels:
[1] = system: E. coli cells expressing mutant TyrRS and mutRNA^TyrCUA; assay: in vivo assay based on suppression of the Asp112TAG codon in the CAT gene (chloramphenicol resistance), p-acetyl-L-phenylalanine synthetases; type: cell-based; conditions: Escherichia coli, read-out: IC50 value chloramphenicol, eleven mutant TyrRS
[2] = system: cells harboring the one of the three mutant TyrRS plasmids; assay: chloramphenicol resistance of cells harboring mutant TyrRS plasmids selected for m-acetyl phenylalanine; type: cell-based
Excerpt: Preparation of mutant TyrRS library plasmids: A library of plasmids encoding mutant M. jannaschii TryRSs directed at meta-substituted tyrosine derivatives was constructed, generally following the methods described in Example 1 of WO 2002/085923. Briefly, six residues (Tyr^32, Ala^67, His^70, Gln^155, Asp^158, Ala^167) in the active site of M. jannaschii TyrRS that are within 6.9 Å of the meta-position of the aryl ring of bound tyrosine in the crystal structure of Bacillus stearothermophilus TyrRS were mutated to all 20 amino acids at DNA level using the NNK codon scheme as described in Example 1 above. The constructed plasmid library pBK-lib contained around 1×10^9 independent clones.
Evolution of orthogonal tRNA-synthetase pairs for incorporation of m-acetyl phenylalanine: After 3 rounds of positive selection and 2 rounds of negative selection, five candidate clones (SEQ ID NO: 17-21 of WO 2002/085923 and SEQ ID NO: 49-53 of WO 2002/085923) emerged whose survival in chloramphenicol was dependent on the addition of the unnatural amino acid. In the absence of m-acetyl phenylalanine, the IC50 of chloramphenicol resistance for cells harboring the one of the three mutant TyrRS plasmids is 20 μg/ml. In the presence of m-acetyl phenylalanine, the IC50 of resistance to chloramphenicol for the same cells is 100 μg/ml. […]

[3] = molecular target: T1, mutRNA^TyrCUA/LW1RS (Methanocaldococcus jannaschii, UniProt Q57834, D158G/I159C/L162R/Y32L); type: cell-based, Methanococcus jannaschii; conditions: mutant Z domain (Lys7TAG); from signal-to-noise ratio of more than 1500 in the intact protein mass spectrum
T1 construct: The mutant synthetase gene isolated from clone LW1 (LW1RS) was encoded in plasmid pBKLW1RS; expressed in transfected cells; host or cells: E. coli DH10B cotransformed with pLEIZ and pBK-LW1RS
Excerpt: Protein expression and purification: Plasmid pLEIZ was used to express the Z-domain gene with an amber codon at the 7th position and a COOH-terminal His6 tag under the control of a bacteriophage T5 promoter and t0 terminator, and the mutRNA^TyrCUA gene under the control of the lpp promoter and rrnC terminator. The mutant synthetase gene isolated from clone LW1 (LW1RS) was encoded in plasmid pBKLW1RS under the control of the constitutive E. coli GlnRS promoter and terminator. E. coli DH10B cells cotransformed with pLEIZ and pBK-LW1RS were grown in minimal media containing 1% glycerol and 0.3 mM leucine (GMML media) with 25 μg/mL kanamycin, 34 μg/mL of chloramphenicol, and 1.0 mM p-acetyl-(±)-phenylalanine. When cells reach an OD600 of 0.5, isopropyl-β-D-thiogalactopyranoside (IPTG) (1 mM) was added to induce protein expression. After 5 hours, cells were pelleted and the protein was purified by Ni^2+ affinity chromatography under denaturing conditions according to the manufacturer's protocol (Qiagen, Valencia, Calif.). […] The yield of protein was measured by Bradford assay (BCA kit, Biorad, Hercules, Calif.). […]
Both the wt Z domain protein expressed by mutRNA^TyrCUA/wt TyrRS and the mutant Z domain protein expressed by the mutRNA^TyrCUA/LW1RS were analyzed by electrospray ionization Fourier transform ion cyclotron resonance mass spectrometry (FT-ICR MS). […]

[4] = system: E. coli DH10B cells; assay: growth of cells in the presence of the unnatural amino acid during Z domain expression; conditions: 1 mM; cells transformed with mutRNA^TyrCUA, LW1RS and Z domain gene (Lys7TAG)
Experimental: E. coli DH10B cells cotransformed with pLEIZ and pBK-LW1RS were grown in minimal media containing 1% glycerol and 0.3 mM leucine (GMML media) with 25 μg/mL kanamycin, 34 μg/mL of chloramphenicol, and 1.0 mM p-acetyl-(±)-phenylalanine. When cells reach an OD600 of 0.5, isopropyl-β-D-thiogalactopyranoside (IPTG) (1 mM) was added to induce protein expression.
Cells transformed with the mutRNA^TyrCUA, LW1RS and Z domain gene (Lys7TAG) were grown in the presence of 1 mM p-acetyl-(±)-phenylalanine.

T1 sequence (Q57834 whole entry Y32L/D158G/I159C/L162R): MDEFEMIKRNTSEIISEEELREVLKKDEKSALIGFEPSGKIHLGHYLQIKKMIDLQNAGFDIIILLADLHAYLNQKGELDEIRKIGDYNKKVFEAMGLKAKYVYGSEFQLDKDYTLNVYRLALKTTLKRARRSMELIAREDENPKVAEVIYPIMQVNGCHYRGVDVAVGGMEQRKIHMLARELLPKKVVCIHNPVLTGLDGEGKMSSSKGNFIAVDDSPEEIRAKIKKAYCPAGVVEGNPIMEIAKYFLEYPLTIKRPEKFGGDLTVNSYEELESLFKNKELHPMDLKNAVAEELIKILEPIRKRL

In the case of O=C(N[C@H](CO)[C@H](O)c1ccc([N+](=O)[O-])cc1)C(Cl)Cl [chloramphenicol], the IC50 ([1]; in the absence of p-acetyl-L-phenylalanine) is reported as 9 µg/mL (≈ 27.9 µM), the IC50 ([1]; in the presence of p-acetyl-L-phenylalanine) is reported as 120 µg/mL and the IC50 ([2]; in the presence of m-acetyl phenylalanine, read-out: IC50 of resistance to chloramphenicol) is reported as 100 µg/mL. For the same compound, the IC50 ([2]; read-out: IC50 of chloramphenicol resistance) was 20 µg/mL (≈ 61.9 µM).
For CC(=O)c1ccc(C[C@H](N)C(=O)O)cc1 [p-acetyl-L-phenylalanine], the “fidelity for the incorporation” value [3] was greater than 99.8%.
CC(=O)c1ccc(CC(N)C(=O)O)cc1 (racemic) [p-acetyl-(±)-phenylalanine] was tested, and the “effect on growth rate of cells” value [4] was “did not affect the growth rate of cells”.
